Reference: patent US9539298B2, “Lissencephaly therapeutic agent” (OSAKA CITY UNIVERSITY, priority 2010, dated 2017)

Columns and labels:
[1] = tested on: LIS1 heterozygous newborn mice; experiment: LIS1 protein in newborn mouse brains after SNJ-1945 oral administration; type: in vivo
Description: A neo(−)129S-Pafah1b1^tm2Awb/J homozygous male mouse lacking neo gene was mated with five homozygous EII-Cre transgenic female mice (FVB/N-Tg (EIIa-cre) C5379Lmgd/J, The Jackson Laboratory) by raising them in the same mouse cage. In total, six sets of mouse cages were prepared for the mating experiment. A newborn was defined at the time of delivery confirmation, which was conducted every morning. SNJ-1945 was dissolved in dimethyl sulfoxide (DMSO) at a concentration of 100 mg/ml, and orally administered using pipettes to the newborn mice in an amount of 200 μg/per gram of body weight.
To determine the effect of SNJ-1945 administration, LIS1 proteins of normal newborn mice and LIS1 heterozygous newborn mice (administered with SNJ-1945) were measured. In the SNJ-1945 administration group, the brain tissues were taken at 0 hour (immediately after the administration), 1 hour, 2 hours, 4 hours, 8 hours, 12 hours, 16 hours, 24 hours, 48 hours, and 72 hours after the administration to measure LIS1 protein, so as to determine the effect of SNJ-1945 over time. Six mice for each group were used for the measurement of LIS1 protein (n=6).
The newborn mice were killed by cutting off their heads, and the brain tissues thereof were immediately isolated. For the measurement of LIS1 protein amount, the weight of the brains was immediately measured as soon as the brains were removed.

[2] = tested on: LIS1 heterozygous mice (lissencephaly model mice); experiment: Behavior analysis: rotor rod test; type: in vivo, mouse; conditions: M2 and M3 groups, 200 μg/g per day oral
Description: To conduct a behavior analysis experiment, wild-type mice and Lis1 (^+/−) heterozygous mice were divided into five groups (C group, M1 group, M2 group, M3 group, and M4 group). The details regarding the mice in each group are described below. CE-2 (CLEA Japan, Inc.) was used as mice feed. The wild-type mice and heterozygous mice used for this experiment were prepared in the same method as described in the above section “Preparation of LIS1 gene hetero-deficient mice (LIS1 heterozygous mice).”
M2 group: LIS1 heterozygous mice prepared as follows. SNJ-1945 was dissolved in dimethyl sulfoxide (Sigma, D-5879) at a concentration of 100 mg/ml, and administered to pregnant mice from Day 9.5 of the embryonic period (E9.5) in an amount of 200 μg per gram of maternal body weight per day. The administration was performed by adding SNJ-1945 to mice feed. […]
By adding SNJ-1945 to the mice feed (CE-2, CLEA Japan, Inc.), SNJ-1945 was continuously administered to the mice so that the administration amount became 200 μg per gram of body weight per day through oral administration. For a behavior analysis experiment, 12 to 16 mice were grouped to be subjected to preliminary breeding in the behavior experiment facility for 1 to 2 weeks; thereafter, the behavior of the mice was analyzed at an age of about 9 to 12 weeks. After the behavior analysis experiment, a gene type was determined for all mice. […]

COCCOCCOC(=O)N[C@@H](CC(C)C)C(=O)N[C@@H](Cc1ccccc1)C(=O)C(=O)NC1CC1 [compound 17, ((1S)-1-((((1S)-1-Benzyl-2,3-dioxo-3-(cyclopropylamino)propyl)amino)carbonyl)-3-methylbutyl)carbamic acid 5-methoxy-3-oxapentyl ester]
LIS1 protein amount in newborn brain ([1]; 200 μg per gram of body weight, oral, FIG. 7): recovered to substantially the normal level
duration of the effect on LIS1 protein after a single dose ([1]; 200 μg/g oral): continued for at least three days
motor ability development curve (time on the rod over repeated tests) ([2]; FIG. 10): positioned between M1 group and C group
total time spent on the rod ([2]; FIG. 11): increased to the extent that there was almost no significant difference from C group
